Results on 14 compounds are retold here after patent US20250320205A1, “STAT6 DEGRADERS” (Gilead Sciences, Inc., priority 2024, published 2025).

The target of the first assay is T1, STAT6 (Homo sapiens, UniProt P42226).
T1 construct: These cells express endogenous STAT6; host or cells: HeLa LgBiT clone 4.14 (CRISPR knock-in of HiBiT into the endogenous STAT6 gene)
T1 sequence (P42226 1-847): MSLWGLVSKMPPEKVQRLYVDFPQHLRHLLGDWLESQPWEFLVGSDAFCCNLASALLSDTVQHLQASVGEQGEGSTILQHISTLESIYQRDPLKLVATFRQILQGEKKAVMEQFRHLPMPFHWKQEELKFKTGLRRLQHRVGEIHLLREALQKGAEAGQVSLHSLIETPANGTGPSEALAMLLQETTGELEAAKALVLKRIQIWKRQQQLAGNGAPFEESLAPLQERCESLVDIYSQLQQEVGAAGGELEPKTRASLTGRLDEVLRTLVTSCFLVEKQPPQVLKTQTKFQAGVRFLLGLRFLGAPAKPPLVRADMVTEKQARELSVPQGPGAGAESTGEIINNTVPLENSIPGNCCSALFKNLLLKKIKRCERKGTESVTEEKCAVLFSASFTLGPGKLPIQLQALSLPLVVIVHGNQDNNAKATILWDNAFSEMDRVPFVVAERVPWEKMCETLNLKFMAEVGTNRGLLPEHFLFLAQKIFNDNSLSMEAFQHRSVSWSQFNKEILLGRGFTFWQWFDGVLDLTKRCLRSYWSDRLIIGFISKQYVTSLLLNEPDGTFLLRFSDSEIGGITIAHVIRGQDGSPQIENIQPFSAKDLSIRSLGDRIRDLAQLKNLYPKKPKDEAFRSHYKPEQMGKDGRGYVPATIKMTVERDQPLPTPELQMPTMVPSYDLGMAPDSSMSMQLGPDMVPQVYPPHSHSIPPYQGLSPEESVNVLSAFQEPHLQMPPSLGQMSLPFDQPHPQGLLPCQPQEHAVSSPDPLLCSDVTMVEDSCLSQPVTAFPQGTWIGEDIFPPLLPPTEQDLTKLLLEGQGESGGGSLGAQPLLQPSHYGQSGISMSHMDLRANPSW
Kind of assay: STAT6 Degrader Assay (HiBiT based, HeLa LgBiT clone 4.14 cells). The note with it: HeLa; maximal STAT6 degradation. It counts as cell-based. How it is done: This was a HiBit based assay. A HeLa cell line stably transfected with a small protein, LgBit (Large Bit) was obtained from Promega. These cells express endogenous STAT6. A small 11 amino acid gene sequence (HiBiT) was inserted in the STAT6 gene using CRISPR technology. Once STAT6 protein is expressed in the cells, the HiBiT sequence will bind the LgBit in the cells resulting in a functional NanoBiT protein, giving a luminescent tag to STAT6. Single cell clones were prepared and the clone 4.14 was selected for the assay based on that clone showing high luminescence, high STAT6 phosphorylation upon stimulation with IL-4, and inhibition of luminescence when cells were treated with STAT6 siRNA. HeLa LgBiT clone 4.14 cells were suspended in DMEM with 10% FCS, 1% Pen/Strep, Na-pyrovate and Hygromycin B, at a concentration of 1.25*105 cells pr mL. 5000 cells were added pr well of a 384 well plate and 20 nL of compound was added by Echo® liquid handler. NN6394A (terfenadine, a toxic compound) was added to control wells at 50 μM concentration to establish the assay window. In these wells the cells are dead which equals 100% degradation of STAT6. After 4-24 h of incubation at 37° C. under 5% CO2/95% air, 5 μL substrate (Nano-GLO®) was added to the wells and the plates were centrifuged and incubated for 0.5 h. The luminescence in the wells as a measure of non-degraded STAT6 was measured in a plate reader (BMG Pherastar FSX). The measured DC50 (in nM) was determined.
Take `C[C@@H](c1cc2c(-n3cc(F)c4c(c3=O)CCN4)ccnc2n1C)N1CC=C(c2c(F)cc(C(=O)N3CCC(CN4CCN(c5ccc(NC6CCC(=O)NC6=O)cc5F)CC4)CC3)cc2F)CC1` (stereo partly drawn) [Example 2g131, 3-((4-(4-((1-(3,5-difluoro-4-(1-((S)-1-(4-(7-fluoro-4-oxo-1,2,3,4-tetrahydro-5H-pyrrolo [3,2-c]pyridin-5-yl)-1-methyl-1H-pyrrolo[2,3-b]pyridin-2-yl)ethyl)-1,2,3,6-tetrahydro-pyridin-4-yl)benzoyl)piper-idin-4-yl)methyl)piperazin-1-yl)-3-fluorophenyl)amino)-piperidine-2,6-dione]: the maximal response (Emax) lay in the range of 50 to 60%.

`CNc1ccn(-c2ccnc3c2cc(CN2CC=C(c4c(C)cc(C(=O)N5CCC(CN6CCN(c7ccc(N[C@H]8CCC(=O)NC8=O)cc7F)CC6)CC5)cc4F)CC2)n3C)c(=O)c1` (single isomer, unassigned) [Example 2g55] displayed an Emax of 70 to 80%.

Turning to `Cc1cc(C(=O)N(C)c2ccc(C3CCN(c4ccc(NC5CCC(=O)NC5=O)cc4F)CC3)cc2)cc(F)c1C1=CCN([C@H](C)c2cc3c(-n4ccc5[nH]ncc5c4=O)ccnc3n2C)CC1` (stereo partly drawn) [Example 2g133, N-(4-(1-(4-((2,6-dioxopiperi-din-3-yl)amino)-2-fluoro-phenyl)piperidin-4-yl)phen-yl)-3-fluoro-N,5-dimethyl-4-(1-((R)-1-(1-methyl-4-(4-oxo-1,4-dihydro-5H-pyrazolo[4,3-c]pyridin-5-yl)-1H-pyrrolo [2,3-b]pyridin-2-yl)ethyl)-1,2,3,6-tetrahydropyridin-4-yl)benzamide], the Emax fell in the range of 60 to 70%.

In the case of `CNc1ccn(-c2ccnc3c2cc([C@H](C)N2CC=C(c4c(C)cc(C(=O)N5CCC(CN6CCN(c7ncc(NC8CCC(=O)NC8=O)cc7F)CC6)CC5)cc4F)CC2)n3C)c(=O)c1` (stereo partly drawn) [Example 2g13, 3-((5-fluoro-6-(4-((1-(3-fluoro-5-methyl-4-(1-((S)-1-(1-methyl-4-(4-(methyl-amino)-2-oxopyridin-1(2H)-yl)-1H-pyrrolo[2,3-b]pyridin-2-yl)ethyl)-1,2,3,6-tetrahydro-pyridin-4-yl)benzoyl)piperi-din-4-yl)methyl)piperazin-1-yl)pyridin-3-yl)amino)piperi-dine-2,6-dione], the Emax was in the range of 20 to 30%.

Consider `COc1cc(N2CCN(CC3CCN(C(=O)c4cc(C)c(C5=CCN([C@@H](C)c6cc7c(-n8cc(F)c9c(c8=O)CCN9)ccnc7n6C)CC5)c(F)c4)CC3)CC2)ccc1NC1CCC(=O)NC1=O` (stereo partly drawn) [Example 2g130, 3-((4-(4-((1-(3-fluoro-4-(1-((S)-1-(4-(7-fluoro-4-oxo-1,2,3,4-tetrahydro-5H-pyr-rolo-[3,2-c]pyridin-5-yl)-1-methyl-1H-pyrrolo[2,3-b]pyridin-2-yl)ethyl)-1,2,3,6-tetrahydropyridin-4-yl)-5-methylbenzoyl)piperidin-4-yl)methyl)piperazin-1-yl)-2-methoxyphenyl)amino)piper-idine-2,6-dione], for which the maximal effect (Emax) lay in the range of 30 to 40%.

For `CNc1ccn(-c2ccnc3c2cc(CN2CCC(c4c(C)cc(C(=O)N5CCN(C(=O)CN6CCN(c7ccc(NC8CCC(=O)NC8=O)cc7F)CC6)CC5)cc4F)CC2)n3C)c(=O)c1` (centres unmarked) [Example 2g132, 3-((3-fluoro-4-(4-(2-(4-(3-fluoro-5-methyl-4-(1-((1-methyl-4-(4-(methylamino)-2-oxopyridin-1(2H)-yl)-1H-pyrrolo[2,3-b]pyridin-2-yl)-methyl)piperidin-4-yl)benzo-yl)piperazin-1-yl)-2-oxo-ethyl)piperazin-1-yl)phenyl)-amino)piperidine-2,6-dione], the Emax was 40 to 50%.

Staying with this assay, now noted: geometric mean across assay runs and compound batches; DC50 provided for test compounds with >80% Emax; read-out: STAT6 degradation DC50.
For the compound `COc1cc(C2CCN(Cc3cc4n(n3)CCN(C(=O)c3ccc(C5CCN([C@@H](C)c6cc7c(-n8ccc9c(c8=O)CCN9)ccnc7n6C)CC5)cc3)C4)CC2)ccc1NC1CCC(=O)NC1=O` (stereo partly drawn) [Example 2g30, 3-((2-methoxy-4-(1-((5-(4-(1-((S)-1-(1-methyl-4-(4-oxo-1,2,3,4-tetrahydro-5H-pyrrolo [3,2-c]pyridin-5-yl)-1H-pyrrolo[2,3-b]pyridin-2-yl)-ethyl)piperidin-4-yl)benzoyl)-4,5,6,7-tetrahydropyrazolo [1,5-a]pyrazin-2-yl)methyl)-piperidin-4-yl)phenyl)amino)-piperidine-2,6-dione], the half-maximal degradation concentration (DC50) was found to be 2.6 nM.

In the case of `CNc1ccn(-c2ccnc3c2cc([C@H](C)N2CCC(c4c(C)cc(C(=O)N5CCC(CN6CCN(c7ccc(N[C@H]8CCC(=O)NC8=O)cc7F)CC6)CC5)cc4F)CC2)n3C)c(=O)c1` (single isomer, unassigned) [Example 2g45], the DC50 is 10.7 nM.

In the case of `Cc1cc(C(=O)N2CCC(CN3CCN(c4ccc(NC5CCC(=O)NC5=O)cc4F)C[C@H]3C)CC2)cc(F)c1C1=CCN([C@@H](C)c2cc3c(-n4ccc5c(c4=O)CCN5)ccnc3n2C)CC1` (stereo partly drawn) [Example 2g22, 3-((3-fluoro-4-((R)-4-((1-(3-fluoro-5-methyl-4-(1-((S)-1-(1-methyl-4-(4-oxo-1,2,3,4-tetrahydro-5H-pyrrolo[3,2-c]pyridin-5-yl)-1H-pyrrolo[2,3-b]pyridin-2-yl)ethyl)-1,2,3,6-tetrahydro-pyridin-4-yl)-benzoyl)piperidin-4-yl)meth-yl)-3-methylpiperazin-1-yl)-phenyl)amino)piperidine-2,6-dione], the DC50 was determined as 3.3 nM.

Take `CNc1cc(=O)n(-c2ccnc3c2cc([C@H](C)N2CC=C(c4c(C)cc(C(=O)N5CCC(CN6CCN(c7ccc(NC8CCC(=O)NC8=O)cc7F)C[C@H]6C)CC5)cc4F)CC2)n3C)cc1F` (stereo partly drawn) [Example 2g27, 3-((3-fluoro-4-((R)-4-((1-(3-fluoro-4-(1-((S)-1-(4-(5-fluoro-4-(methylamino)-2-oxopyridin-1(2H)-yl)-1-meth-yl-1H-pyrrolo[2,3-b]pyridin-2-yl)ethyl)-1,2,3,6-tetrahydro-pyridin-4-yl)-5-methylbenz-oyl)piperidin-4-yl)methyl)-3-methylpiperazin-1-yl)phenyl)-amino)piperidine-2,6-dione]: the DC50 turned out to be 4.2 nM.

In the case of `CNc1ccn(-c2ccnc3c2cc(CN2CCC(c4c(C)cc(C(=O)N5CCC(CN6CCN(c7ccc(N[C@@H]8CCC(=O)NC8=O)cc7F)CC6)CC5)cc4F)CC2)n3C)c(=O)c1` (single isomer, unassigned) [Example 2g61], the DC50 is 14.8 nM.

Turning to `CNc1ccn(-c2ccnc3c2cc(CN2CC=C(c4c(C)cc(C(=O)N5CCC(CN6CCN(c7ccc(NC8CCC(=O)NC8=O)cc7F)CC6)CC5)cc4F)CC2)n3C)c(=O)c1` (centres unmarked) [Example 2g54, 3-((3-fluoro-4-(4-((1-(3-fluoro-5-methyl-4-(1-((1-methyl-4-(4-(methylamino)-2-oxopyridin-1(2H)-yl)-1H-pyrrolo[2,3-b]pyridin-2-yl)-methyl)-1,2,3,6-tetrahydro-pyridin-4-yl)benzoyl)piperi-din-4-yl)methyl)piperazin-1-yl)phenyl)amino)piperidine-2,6-dione], the DC50 stood at 7.3 nM.

On to `CNc1ccn(-c2ccnc3c2cc([C@H](C)N2CC=C(c4c(F)cc(C(=O)N5CCC(CN6CCN(c7ccc(N[C@H]8CCC(=O)NC8=O)cc7F)CC6)CC5)cc4F)CC2)n3C)c(=O)c1` (single isomer, unassigned) [Example 2g106], for which the DC50 worked out at 7.66 nM.

`CNc1ccn(-c2ccnc3c2cc([C@H](C)N2CCC(c4c(C)cc(C(=O)N5CCC(CN6CCN(c7ccc(N[C@@H]8CCC(=O)NC8=O)cc7F)CC6)CC5)cc4F)CC2)n3C)c(=O)c1` (single isomer, unassigned) [Example 2g44]: the 50% degradation concentration (DC50) came out at 12.2 nM.
